# Source: patent publication US9913838B2, “Methods of treating cancer using compositions comprising perillyl alcohol derivative” (NEONC TECHNOLOGIES INC., priority 2010, dated 2018)
# “Also recorded” adds a separate entry of the source.
# Columns and labels:
# MGMT = experiment: Western blot of MGMT protein levels in MDA-MB-468 cells; assay type: cell-based, human; conditions: in words
# Method: In FIG. 21C, MDA-MB-468 cells were treated with the indicated concentrations of TMZ-POH, TMZ, or O6-BG for 17 hours before harvest of cellular lysates. vh.=cells treated with vehicle only.
# (§1) Total cell lysates were analyzed by Western blot analysis as described in P. Pyrko et al. Downregulation of survivin expression and concomitant induction of apoptosis by celecoxib and its non-cyclooxygenase-2-inhibitory analog, dimethyl-celecoxib (DMC), in tumor cells in vitro and in vivo. Mol Cancer 5 (2006) 19. The primary antibodies were purchased from Cell Signaling Technology (Beverly, Mass.) or Santa Cruz Biotechnology, Inc. (Santa Cruz, Calif.) and used according to the manufacturers' recommendations. All immunoblots were repeated at least once to confirm the results.
# The major cytotoxic DNA lesion set by TMZ is methylation of O6-guanine, and it is well known that removal of this methyl group by MGMT leads to rapid degradation of the DNA repair protein.
# 231-MGMT-2 = experiment: Colony formation assay, MGMT-transfected 231-MGMT-2; assay type: cell-based, human; conditions: for IC50: Homo sapiens, 48 h, read-out: IC50 (concentration required to decrease colony formation by 50%)
# Method: (§2) Depending on the cell line (and plating efficiency), 200-350 cells were seeded into each well of a 6-well plate. […] Thereafter, the drugs were removed, fresh growth medium was added, and the cells were kept in culture undisturbed for 12-16 days, during which time the surviving cells spawned colonies of descendants. Colonies (defined as groups of >50 cells) were visualized by staining for 4 hours with 1% methylene blue (in methanol), and then were counted.
# (§3) In the case of O6-BG treatment, cells were pretreated with 10 μM O6-BG for one hour before addition of TMZ or TMZ-POH. After 24 hours, another 10 μM O6-BG was added to the medium. Another 24 hours later, drug-laced medium was removed, and fresh medium without drugs was added. Thereafter, cells remained undisturbed until staining with methylene blue.
# MDA-MB-231 cells were co-transfected in 6-well plates with the use of Lipofectamine 2000 (Invitrogen, Carlsbad, Calif.) according to manufacturer's instructions. 2 μg pSV2MGMT (containing the human MGMT cDNA) was combined with 0.2 μg pSV2neo (containing the neomycin gene for selection of cells in G418). Both plasmids were provided by Bernd Kaina (Mainz, Germany). Individual clones of transfected cells were selected in medium containing 750 μg/mL G418 and propagated in 250 μg/mL G418. G418 was obtained as G418 disulfate salt from Sigma-Aldrich and dissolved in PBS at 75 mg/mL. Selection medium was removed from cells several days before experimental drug treatment.
# To investigate the latter, we stably transfected MGMT-negative MDA-MB-231 cells with MGMT cDNA and isolated individual clones. […] Both clones were treated with increasing concentrations of TMZ-POH and TMZ and analyzed by CFA.
# a variant of MDA-MB-231 = experiment: In vitro sensitivity of the cell line used in vivo; assay type: cell-based; conditions: Homo sapiens, in vitro sensitivity to TMZ
# [1] = test system: USC-02 glioma cancer stem cells; experiment: MTT cytotoxicity assay, USC-02 glioma cancer stem cells; assay type: cell-based
# Description: Cancer Lett. 2011 Mar. 28; 302(2):100-8.
# MDA-MB-468 = experiment: Colony formation assay, MDA-MB-468; conditions: for IC50: Homo sapiens, MDA-MB-468, 48 h, read-out: IC50 (concentration required to decrease colony formation by 50%)
# Method: as §2, §3
# (§4) The cytotoxic potency of TMZ-POH, was analyzed by colony formation assay (CFA) in a variety of human breast cancer cell lines and compared to the cytotoxicity of TMZ. We used estrogen receptor positive cells MCF7 and T47D, the triple-negative lines MDA-MB-231, MDA-MB-468, and HCC-1937, and a brain-seeking variant of the 231 cell line, MDA-MB-231-br.
# MDA-MB-231 = experiment: cells; conditions: for reduction of colony formation: 10 μM (each), 48 hours; for IC50: Homo sapiens, MDA-MB-231, 48 h, read-out: IC50 (concentration required to decrease colony formation by 50%)
# Method: as §2, §3, §4
# Thus, we tested whether simply mixing the two compounds TMZ and POH could mimic the effects of the TMZ-POH conjugate. MDA-MB-231 cells were treated with the individual compounds (TMZ-POH, TMZ or POH) alone, or with an equimolar mix of TMZ plus POH, and cell survival was analyzed by CFA.
# γ-H2AX = experiment: Western blot of DNA damage marker in MDA-MB-231 cells; assay type: cell-based, human; conditions: MDA-MB-231, 50 μM, time course of 72 hours; in words
# Method: Actin was used as a loading control.
# as §1
# [2] = test system: γ-H2AX, activated caspase 7 and cleaved PARP; experiment: DNA damage and cell death marker analysis in MDA-MB-231 cells (Western blot); assay type: cell-based, human; conditions: in words
# Method: FIGS. 25A-25B show DNA damage and cell death marker analysis, where MDA-MB-231 cells were used for Western blot analysis of expression levels for markers of DNA damage (γ-H2AX) and cell death (activated caspase 7 and cleaved PARP). In FIG. 25A, cells were treated with 15 μM TMZ-POH and harvested every 24 hours up to 6 days; control cells remained untreated, or received vehicle (vh.) only. In FIG. 25B, cells were treated with 20 μM of either TMZ-POH, TMZ, or POH individually, or with 20 μM TMZ combined with 20 μM POH (TMZ+POH) and harvested after 24 hours or 5 days; control cells remained untreated, or received vehicle (vh.) only. In the case of caspase 7, only the activated (cleaved) form is shown (cl. C-7).
# as §1
# It is known that GBM cells treated with physiological concentrations of TMZ (<100 μM) in vitro can survive for several (5-7) days seemingly unaffected before substantial cell death becomes apparent. We observed a similar phenotype when breast cancer cell lines were treated with TMZ-POH, i.e., cell cultures only began to deteriorate approximately a week after the onset of drug treatment. In order to characterize TMZ-POH-induced cell death in greater detail, we treated MDA-MB-231 cells with 15 μM of the drug and collected cell lysates daily over the course of 6 days. The lysates were analyzed by Western blot for the presence of two apoptosis markers, cleaved (i.e. activated) caspase 7 and cleaved PARP-1 (poly ADP-ribose polymerase-1), along with the DNA damage marker γ-H2AX.
# As shown in FIGS. 20A-20B above, an equimolar combination of TMZ+POH was unable to achieve the same potency in blocking colony survival as the TMZ-POH conjugate. […] We treated cells with the same concentration (20 μM) of TMZ-POH, TMZ, POH, or TMZ combined with POH (TMZ+POH), and analyzed the induction of γ-H2AX, activated caspase 7, and cleaved PARP. […] Thus, the results from the cell survival assay (FIGS. 20A-20B) correlated closely with the effects of these compounds on DNA damage and apoptosis markers (FIG. 25B), and in all cases TMZ-POH clearly generated the strongest anticancer impact.
Structure (SMILES),"MGMT protein levels (MGMT; MDA-MB-468, 50 μM, 17 hours)",IC50 (231-MGMT-2),IC50 (a variant of MDA-MB-231),"cytotoxicity (MTT assay) ([1]; TMZ 0-400 uM, POH 0-2 mM, in words)",IC50 (MDA-MB-468),reduction of colony formation (MDA-MB-231; MDA-MB-231),IC50 (MDA-MB-231),"MGMT protein levels (MGMT; MDA-MB-468, 17 hours)","Differential (−fold) (231-MGMT-2; fold increase in potency of TMZ-POH compared to TMZ, 231-MGMT-2)",levels of γ-H2AX (γ-H2AX),"active caspase 7 and cleaved PARP ([2]; MDA-MB-231, 15 μM, over 6 days)","γ-H2AX expression levels ([2]; MDA-MB-231, 15 μM, over 6 days)","induction of γ-H2AX, activated caspase 7, and cleaved PARP ([2]; MDA-MB-231, 20 μM, after 5 days of treatment)",IC50 ([1]; read-out: cytotoxicity with 1050),"Differential (−fold) (MDA-MB-468; fold increase in potency of TMZ-POH compared to TMZ, MDA-MB-468)","colony formation (CFA) (MDA-MB-468; low micromolar concentrations, 48 hours, in words)","Differential (−fold) (MDA-MB-231; fold increase in potency of TMZ-POH compared to TMZ, MDA-MB-231)"
"Cn1nnc2c(C(N)=O)ncn2c1=O [TMZ, temozolomide, reference compound]",no effect,212 µM,< 10 µM,did not induce significant cytotoxicity,195 µM,about 50%,9.9 µM,–,–,–,–,–,–,–,–,–,–
C=C(C)[C@@H]1CC=C(COC(=O)NC(=O)c2ncn3c(=O)n(C)nnc23)CC1 [TMZ-POH],significant decrease,34 µM,–,–,31 µM,about 95%,2.3 µM,affects MGMT levels more potently than TMZ,6.2 −fold,substantially increased levels of γ-H2AX; also recorded: much stronger as compared to TMZ,started to increase at day 3,pronounced increase in γ-H2AX expression levels,induced quite prominently,60 µM,6.3 −fold,prevented colony formation,4.3 −fold
